Values of other authors, collected in PubChem BioAssay AID1259409 (Chemical Carcinogenesis Research Information System (CCRIS), 2018).

Tested on: rodent chemically induced tumor inhibition, incidence and multiplicity
Assay: CCRIS tumor inhibitor studies
Details: Route [Inhibitor]: ORAL, Species: HAMSTER, Promoter: NONE USED

Compound: CC1=C(/C=C/C(C)=C/C=C/C(C)=C\C(=O)O)C(C)(C)CCC1
- tumour outcome (control, treated, inhibition, significance) (Carcinogen: N-NITROBIS(2-OXOPROPYL)AMINE, 60559-38-4, Dose [Inhibitor]: 0.4 OR 0.8 MMOL/KG DIET DAILY STARTING 1 WK AFTER CARCINOGEN TREATMENT AND CONTINUING THROUGH THE END OF THE STUDY (STUD, Strain/Sex: SYRIAN/FEMALE, Target Tissue: Type of Lesion: PANCREAS: DUCTULAR ADENOMA, Dose [Carcinogen]: 40 MG/KG BW ONCE): 12/20 (60%), 7/14 (50%), 17%, not significant
- tumour outcome (control, treated, inhibition, significance) (Carcinogen: N-NITROBIS(2-OXOPROPYL)AMINE, 60559-38-4, Dose [Inhibitor]: 0.4 OR 0.8 MMOL/KG DIET DAILY STARTING 1 WK AFTER CARCINOGEN TREATMENT AND CONTINUING THROUGH THE END OF THE STUDY (STUD, Strain/Sex: SYRIAN/FEMALE, Target Tissue: Type of Lesion: PANCREAS: DUCTULAR CARCINOMA, Dose [Carcinogen]: 10 MG/KG BW ONCE): 6/23 (27%), 3/23 (13%), 52%, not significant
- tumour outcome (control, treated, inhibition, significance) (Carcinogen: N-NITROBIS(2-OXOPROPYL)AMINE, 60559-38-4, Dose [Inhibitor]: 0.4 OR 0.8 MMOL/KG DIET DAILY STARTING 1 WK AFTER CARCINOGEN TREATMENT AND CONTINUING THROUGH THE END OF THE STUDY (STUD, Strain/Sex: SYRIAN/FEMALE, Target Tissue: Type of Lesion: PANCREAS: DUCTULAR CARCINOMA, Dose [Carcinogen]: 40 MG/KG BW ONCE): 6/20 (30%), 9/14 (64%), -113%, not significant
- tumour outcome (control, treated, inhibition, significance) (Carcinogen: N-NITROBIS(2-OXOPROPYL)AMINE, 60559-38-4, Dose [Inhibitor]: 0.4 OR 0.8 MMOL/KG DIET DAILY STARTING 1 WK AFTER CARCINOGEN TREATMENT AND CONTINUING THROUGH THE END OF THE STUDY (STUD, Strain/Sex: SYRIAN/MALE, Target Tissue: Type of Lesion: PANCREAS: DUCTULAR CARCINOMA, Dose [Carcinogen]: 40 MG/KG BW ONCE): 5/24 (21%), 9/24 (38%), -81%, not significant
- tumour outcome (control, treated, inhibition, significance) (Carcinogen: N-NITROBIS(2-OXOPROPYL)AMINE, 60559-38-4, Dose [Inhibitor]: 0.4 OR 0.8 MMOL/KG/D IN DIET STARTING 1 WK AFTER CARCINOGEN TREATMENT AND CONTINUING THROUGH THE END OF THE STUDY (STUDY, Strain/Sex: SYRIAN/MALE, Target Tissue: Type of Lesion: LIVER: BENIGN TUMOR, Dose [Carcinogen]: 40 MG/KG BW ONCE): 21%, 48%, -129%, not significant
- tumour outcome (control, treated, inhibition, significance) (Carcinogen: N-NITROBIS(2-OXOPROPYL)AMINE, 60559-38-4, Dose [Inhibitor]: 0.4 OR 0.8 MMOL/KG/D IN DIET STARTING 1 WK AFTER CARCINOGEN TREATMENT AND CONTINUING THROUGH THE END OF THE STUDY (STUDY, Strain/Sex: SYRIAN/MALE, Target Tissue: Type of Lesion: PANCREAS: DUCTULAR ADENOMA, Dose [Carcinogen]: 10 MG/KG BW ONCE): 3/22 (14%), 20/36 (56%), -300%, p<0.05
- tumour outcome (control, treated, inhibition, significance) (Carcinogen: N-NITROBIS(2-OXOPROPYL)AMINE, 60559-38-4, Dose [Inhibitor]: 0.4 OR 0.8 MMOL/KG/D IN DIET STARTING 1 WK AFTER CARCINOGEN TREATMENT AND CONTINUING THROUGH THE END OF THE STUDY (STUDY, Strain/Sex: SYRIAN/MALE, Target Tissue: Type of Lesion: PANCREAS: DUCTULAR CARCINOMA, Dose [Carcinogen]: 10 MG/KG BW ONCE): 4/22 (18%), 8/36 (22%), -22%, not significant
- tumour outcome (control, treated, inhibition, significance) (Carcinogen: N-NITROBIS(2-OXOPROPYL)AMINE, 60559-38-4, Dose [Inhibitor]: 0.5 OR 1.0 MMOL/KG/D IN DIET STARTING 1 WK AFTER CARCINOGEN TREATMENT AND CONTINUING THROUGH THE END OF THE STUDY (STUDY, Strain/Sex: SYRIAN/FEMALE, Target Tissue: Type of Lesion: PANCREAS: DUCTULAR ADENOMA, Dose [Carcinogen]: 10 MG/KG BW ONCE): 5/23 (22%), 9/23 (39%), -77%, not significant
- tumour outcome (control, treated, inhibition, significance) (Carcinogen: N-NITROBIS(2-OXOPROPYL)AMINE, 60559-38-4, Dose [Inhibitor]: 0.5 OR 1.0 MMOL/KG/D IN DIET STARTING 1 WK AFTER CARCINOGEN TREATMENT AND CONTINUING THROUGH THE END OF THE STUDY (STUDY, Strain/Sex: SYRIAN/FEMALE, Target Tissue: Type of Lesion: PANCREAS: DUCTULAR CARCINOMA, Dose [Carcinogen]: 10 MG/KG BW ONCE): 6/23 (27%), 3/23 (13%), 52%, not significant
- tumour outcome (control, treated, inhibition, significance) (Carcinogen: N-NITROSOBIS(2-OXYPROPYL)AMINE, 60599-38-4, Dose [Inhibitor]: 0.05, 0.1 OR 0.2 MILLIMOLAR/KG DIET FOR 32 WK STARTING 1 WK AFTER THE CARCINOGEN DOSE (STUDY DURATION: 33 WK), Strain/Sex: SYRIAN/FEMALE, Target Tissue: Type of Lesion: LUNG: ADENOMA, Dose [Carcinogen]: 40 MG/KG ONCE): 3/10 (30%), 6/26 (23%), 23%, not significant
- tumour outcome (control, treated, inhibition, significance) (Carcinogen: N-NITROSOBIS(2-OXYPROPYL)AMINE, 60599-38-4, Dose [Inhibitor]: 0.05, 0.1 OR 0.2 MILLIMOLAR/KG DIET FOR 32 WK STARTING 1 WK AFTER THE CARCINOGEN DOSE (STUDY DURATION: 33 WK), Strain/Sex: SYRIAN/MALE, Target Tissue: Type of Lesion: COMMON DUCT: ADENOMA, Dose [Carcinogen]: 40 MG/KG ONCE): 4/12 (33%), 17/29 (59%), -78%, not significant
- tumour outcome (control, treated, inhibition, significance) (Carcinogen: N-NITROSOBIS(2-OXYPROPYL)AMINE, 60599-38-4, Dose [Inhibitor]: 0.05, 0.1 OR 0.2 MILLIMOLAR/KG DIET FOR 32 WK STARTING 1 WK AFTER THE CARCINOGEN DOSE (STUDY DURATION: 33 WK), Strain/Sex: SYRIAN/MALE, Target Tissue: Type of Lesion: GALL BLADDER: ADENOMA, Dose [Carcinogen]: 40 MG/KG ONCE): 3/12 (25%), 12/29 (41%), -64%, not significant
- tumour outcome (control, treated, inhibition, significance) (Carcinogen: N-NITROSOBIS(2-OXYPROPYL)AMINE, 60599-38-4, Dose [Inhibitor]: 0.05, 0.1 OR 0.2 MILLIMOLAR/KG DIET FOR 32 WK STARTING 1 WK AFTER THE CARCINOGEN DOSE (STUDY DURATION: 33 WK), Strain/Sex: SYRIAN/MALE, Target Tissue: Type of Lesion: LIVER: ADENOMA, Dose [Carcinogen]: 40 MG/KG ONCE): 50%, 41%, 18%, not significant
- tumour outcome (control, treated, inhibition, significance) (Carcinogen: N-NITROSOBIS(2-OXYPROPYL)AMINE, 60599-38-4, Dose [Inhibitor]: 0.05, 0.1 OR 0.2 MILLIMOLAR/KG DIET FOR 32 WK STARTING 1 WK AFTER THE CARCINOGEN DOSE (STUDY DURATION: 33 WK), Strain/Sex: SYRIAN/MALE, Target Tissue: Type of Lesion: LUNG: ADENOMA, Dose [Carcinogen]: 40 MG/KG ONCE): 1/12 (8%), 2/29 (3%), 63%, not significant
- tumour outcome (control, treated, inhibition, significance) (Carcinogen: N-NITROSOBIS(2-OXYPROPYL)AMINE, 60599-38-4, Dose [Inhibitor]: 0.05, 0.1 OR 0.2 MILLIMOLAR/KG DIET FOR 32 WK STARTING 1 WK AFTER THE CARCINOGENDOSE (STUDY DURATION: 33 WK), Strain/Sex: SYRIAN/FEMALE, Target Tissue: Type of Lesion: COMMON DUCT: ADENOMA, Dose [Carcinogen]: 40 MG/KG ONCE): 4/10 (40%), 11/26 (42%), -5%, not significant
- tumour outcome (control, treated, inhibition, significance) (Carcinogen: N-NITROSOBIS(2-OXYPROPYL)AMINE, 60599-38-4, Dose [Inhibitor]: 0.05, 0.1 OR 0.2 MILLIMOLAR/KG DIET FOR 32 WK STARTING 1 WK AFTER THE CARCINOGENDOSE (STUDY DURATION: 33 WK), Strain/Sex: SYRIAN/FEMALE, Target Tissue: Type of Lesion: GALL BLADDER: ADENOMA, Dose [Carcinogen]: 40 MG/KG ONCE): 6/10 (60%), 2/26 (18%), 70%, not significant
- tumour outcome (control, treated, inhibition, significance) (Carcinogen: N-NITROSOBIS(2-OXYPROPYL)AMINE, 60599-38-4, Dose [Inhibitor]: 0.05, 0.1 OR 0.2 MILLIMOLAR/KG DIET FOR 32 WK STARTING 1 WK AFTER THE CARCINOGENDOSE (STUDY DURATION: 33 WK), Strain/Sex: SYRIAN/FEMALE, Target Tissue: Type of Lesion: LIVER : ADENOMA, Dose [Carcinogen]: 40 MG/KG ONCE): 6/10 (60%), 10/26 (39%), 35%, not significant
- tumour outcome (control, treated, inhibition, significance) (Carcinogen: N-NITROSOBIS(2-OXYPROPYL)AMINE, 60599-38-4, Dose [Inhibitor]: 0.05, 0.1 OR 0.2 MILLIMOLAR/KG DIET FOR 32 WK STARTING 1 WK AFTER THE CARCINOGENDOSE (STUDY DURATION: 33 WK), Strain/Sex: SYRIAN/FEMALE, Target Tissue: Type of Lesion: PANCREAS: ADENOMA, Dose [Carcinogen]: 40 MG/KG ONCE): 10/10 (100%), 26/26 (100%), 0%, not significant
- tumour outcome (control, treated, inhibition, significance) (Carcinogen: N-NITROSOBIS(2-OXYPROPYL)AMINE, 60599-38-4, Dose [Inhibitor]: 0.05, 0.1 OR 0.2 MILLIMOLAR/KG DIET FOR 32 WK STARTING 1 WK AFTER THE CARCINOGENDOSE (STUDY DURATION: 33 WK), Strain/Sex: SYRIAN/FEMALE, Target Tissue: Type of Lesion: PANCREAS: CARCINOMA, Dose [Carcinogen]: 40 MG/KG ONCE): 4/10 (40%), 14/26 (54%), -35%, not significant
- tumour outcome (control, treated, inhibition, significance) (Carcinogen: N-NITROSOBIS(2-OXYPROPYL)AMINE, 60599-38-4, Dose [Inhibitor]: 0.05, 0.1 OR 0.2 MILLIMOLAR/KG DIET FOR 32 WK STARTING 1 WK AFTER THE CARCINOGENDOSE (STUDY DURATION: 33 WK), Strain/Sex: SYRIAN/MALE, Target Tissue: Type of Lesion: PANCREAS: ADENOMA, Dose [Carcinogen]: 40 MG/KG ONCE): 12/12 (100%), 29/29 (100%), 0%, not significant
- tumour outcome (control, treated, inhibition, significance) (Carcinogen: N-NITROSOBIS(2-OXYPROPYL)AMINE, 60599-38-4, Dose [Inhibitor]: 0.05, 0.1 OR 0.2 MILLIMOLAR/KG DIET FOR 32 WK STARTING 1 WK AFTER THE CARCINOGENDOSE (STUDY DURATION: 33 WK), Strain/Sex: SYRIAN/MALE, Target Tissue: Type of Lesion: PANCREAS: CARCINOMA, Dose [Carcinogen]: 40 MG/KG ONCE): 6/12 (50%), 12/29 (41%), 18%, not significant
